From patent US12728109B2, “Method of increasing the population of Dialister spp. in the gut microbiome” (DSM IP ASSETS B.V., priority 2020, dated 2026)

Experiments:
Dialister [1] = experiment: In vitro fermentation study 2: intestinal batch fermentation with fecal suspension, 16S rRNA Illumina sequencing and flow cytometry; format: cell-based, Dialister spp.; conditions: fermentation supernatant at 24 h, donor C, FIG. 1B
Procedure: (§1) At the start of this intestinal batch fermentation incubation, all test ingredients were added from stock solutions to the modified nutritional medium, containing (g/l): 2.5 K2HPO4, 10.9 KH2PO4, 2 NaHCO3, 2 yeast extract, 2 peptone, 1 mucin, 0.5 cystein, 2 Tween 80, 2 glucose, 2 starch, 2 cellobiose, 0.1 NaCl, 0.01 MgSO4·7H2O, 0.01 CaCl2·6H2O, 0.05 hemin, 0.5 bile salts.
The following compounds were added from stock solutions prepared in water: • Beta-carotene, • Vitamin B3, • Vitamin B5, • Vitamin B7, • Fructooligosaccharides (positive control)
(§2) As a source of the microbial community, freshly prepared fecal suspension from a donor was added to the reactors. […] All tests, except the blanks, were performed in single repetition. Incubation conditions were 48 h at 37° C., under shaking (90 rpm) and anaerobic conditions.
Microbial composition: Illumina sequencing was performed at the start and after 24 h of incubation. The technique targets the 16S rRNA gene that consists of variable and conserved regions, spread over the gene. Due to their key role in protein expression, the conserved regions are characterized by very low evolutionary rates.
The methodology applied involves primers that span 2 hypervariable regions (V3-V4) of the 16S rRNA gene. Using a pair-end sequencing approach, sequencing of 2×250 bp results in 424 bp amplicons. Such fragments are taxonomically more informative as compared to smaller fragments. Samples that were analyzed with Illumina sequencing were also analyzed with flow cytometry to determine the number of total bacterial cells, thus allowing to convert the proportional values obtained with Illumina into absolute quantities. Samples were analyzed on a BDFacs verse. The samples were run using the high flow rate. Bacterial cells were separated from medium debris and signal noise by applying a threshold level of 200 on the SYTO channel. Proper parent and daughter gates were set to determine all populations.

Dialister [2] = experiment: In vitro fermentation study 1: intestinal batch fermentation with fecal suspension, shotgun metagenome sequencing; format: cell-based, Dialister spp.; conditions: fermentation supernatant at 24 hours; all tested concentrations (0.2x, 1x, 5x); FIG. 1A
Procedure: as §1, with “cysteine,” for “cystein,”
The following compounds were added from stock solutions prepared in water for vitamin B2 and B9, and in ethanol for vitamin K1, DHA and EPA:
as §2, with “Each compound was tested in three different concentrations. As” for “As”
Microbial composition: Total DNA was extracted from all fermentation samples collected throughout the study using the QIAamp DNA stool minikit (Qiagen, Crawley, United Kingdom) according to the manufacturer's instructions, apart from addition of a bead-beating step and increasing the lysis temperature to 95° C. as described previously. After DNA isolation, DNA was quantified using the Qubit High Sensitivity DNA assay (Thermo Fisher). Whole metagenome libraries were then prepared using the Illumina Nextera XT kit (Illumina) in accordance with the manufacturer's instructions, with the following modifications: Firstly, tagmentation time was increased to 7 min and secondly, following incorporation of indices and Ampure purification of the products, the samples were each individually sized by running on an Agilent High Sensitivity Chip (Agilent) and quantified using the Qubit High Sensitivity DNA assay (Thermo Fisher) in accordance with Teagasc Sequencing Platform SOPs. […] Delivered raw FASTQ sequence files were quality checked as follows: poor quality and duplicate read removal, as well as trimming was implemented using a combination of SAM and Picard tools. Taxonomy was assigned to the reads using the Metaphlan2 software.

fecal Dialister = experiment: Clinical study: randomized, double-blind, placebo-controlled study of colon-targeted vitamins, fecal microbial composition; format: in vivo; conditions: human, colon-release capsule once daily for four weeks, fecal samples; FIG. 1C
Excerpt: Twelve participants were allocated to each of the six vitamin groups, and 24 participants allocated to the placebo group. All 96 participants completed the intervention. To be considered eligible for enrollment into the study, participants have to be able to give written informed consent; be aged between 20 and 50 years of age; have a BMI of between 18.5-30 Kg/m2; have a stable body weight (<5% change) over the past 3-months; be in generally good health, as determined by the investigator; have not consumed dietary supplements, prebiotic, probiotic, dietary or fiber-rich supplements within 4 weeks prior to baseline visit and be willing to avoid these supplements until the end of the study; be willing to avoid liver consumption for the duration for the study, be willing to maintain their current level of physical activity for the duration of the study; and be willing to consume the IP daily for the duration of the study. […] Before the randomization visit, participants food frequency questionnaires were analyzed to ensure their typical fiber intake is <30 g fiber/day. […] At the baseline visit (Visit 2), participants retuned a fecal samples collected in the previous 48 hours and eligibility was assessed. […] Participants returned their IP and compliance was assessed. […]

## CC1=C(/C=C/C(C)=C/C=C/C(C)=C/C=C/C=C(C)/C=C/C=C(C)/C=C/C2=C(C)CCCC2(C)C)C(C)(C)CCC1 [beta-carotene, Beta-carotene]
Dialister [1]; all tested concentrations
  Dialister relative abundances compared to control: increase

## Cc1cc2nc3c(=O)[nH]c(=O)nc-3n(C[C@H](O)[C@H](O)[C@H](O)CO)c2cc1C [vitamin B2, Riboflavin]
Dialister [2]
  Dialister relative abundances compared to control: substantial increase

## NC(=O)c1cccnc1 [vitamin B3, Niacinamide]
Dialister [1]; all tested concentrations
  Dialister relative abundances compared to control: no distinct increase

## CC(C)(CO)[C@@H](O)C(=O)NCCC(=O)O [vitamin B5, Pantothenic acid]
Dialister [1]; at 0.2× and 5×
  Dialister relative abundances compared to control: increase

## O=C(O)CCCC[C@@H]1SC[C@@H]2NC(=O)N[C@@H]21 [vitamin B7, Biotin]
Dialister [1]; all tested concentrations
  Dialister relative abundances compared to control: no distinct increase

## Nc1nc2ncc(CNc3ccc(C(=O)N[C@@H](CCC(=O)O)C(=O)O)cc3)nc2c(=O)[nH]1 [vitamin B9, Folic acid]
Dialister [2]
  Dialister relative abundances compared to control: no distinct increase

## C=C1CC[C@H](O)C/C1=C/C=C1\CCC[C@]2(C)[C@@H]([C@H](C)CCCC(C)C)CC[C@@H]12 [vitamin D3, cholecalciferol]
Fecal Dialister
  Dialister relative abundance compared to placebo: increase

## CC1=C(C/C=C(\C)CCC[C@H](C)CCC[C@H](C)CCCC(C)C)C(=O)c2ccccc2C1=O [vitamin K1]
Dialister [2]
  Dialister relative abundances compared to control: substantial increase

## vitamin A
Fecal Dialister
  Dialister relative abundance compared to placebo: increase
